Reference: US4859693A, “Antiinflammatory carbinoloimidazoles” (E. I. Du Pont de Nemours and Company, priority 1988, dated 1989)

test system: inflammation induced by tetradecanoyl phorbol acetate (TPA); assay: TPA model: inflammation (ear edema) induced by tetradecanoyl phorbol acetate in mice; type: in vivo; conditions: 100 μg/ear topical, mouse ear, TPA stimulus, edema measured four hours later
From the text: One such model is the inflammation induced by tetradecanoyl phorbol acetate (TPA). The test methods are modified from those of Marks et al. (Cancer Res, 36, p. 2636, 1976). The TPA model is a murine model which mimics many of the inflammatory changes which occur in human disease such as psoriasis. In this model, elevated levels of inflammatory arachidonic acid metabolites are found, and an influx or polymorphonuclear leukocytes (PMN) is observed. The procedure used to evaluate the compounds of this invention is as follows: the test compound (100 μg/ear) is applied to the ears of mice in an appropriate vehicle, such as acetone, and then the inflammatory stimulus is applied to the right ear. Four hours later, the edema is measured by removing standard sized discs from the mouse ears using a biopsy punch. The masses of the discs are then determined.

SMILES | % Inhibition of Control Inflammation
OC(CCCn1ccnc1)(c1ccc(F)cc1)c1ccc(F)cc1 [Example 1a, 1,1-bis(4-fluorophenyl)-4-(1-imidazolyl)butanol] | 31%
CCC(n1ccnc1)C(O)(c1ccc(F)cc1)c1ccc(F)cc1 (racemic) [Example 3a, 1,1-bis(4-fluorophenyl)-2-(1-imidazolyl)butanol] | 40%
CC(n1ccnc1)C(O)(c1ccc(Cl)cc1)c1ccc(Cl)cc1 (centres unmarked) [Example 3e] | 55%
CCCC(n1ccnc1)C(O)(c1ccc(F)cc1)c1ccc(F)cc1 (centres unmarked) [Example 3c] | 30%
OC(Cn1ccnc1)(c1ccc(F)cc1)c1ccc(Br)cc1 (centres unmarked) [Example 2b, 1-(4-fluorophenyl)-1-(4-bromophenyl)-2-(1-imidazolyl)-ethanol] | 41%
CC(n1ccnc1)C(O)(c1ccc(F)cc1)c1ccc(F)cc1 (centres unmarked) [Example 3b] | 40%
Cc1ccc(C(O)(c2ccc(C)cc2)[C@H](C)n2ccnc2)cc1 [Example 4a, (S)-1,1-bis(4-methylphenyl)-2-(1-imidazolyl)propanol] | 33%
C[C@@H](n1ccnc1)C(O)(c1ccc(Cl)cc1)c1ccc(Cl)cc1 [Example 5a, (R)-1,1-bis(4-chlorophenyl)-2-(1-imidazolyl)propanol] | 61%
